Test results from ChEMBL document CHEMBL1153203, “Proposed structural basis of interaction of piperine and related compounds with monoamine oxidases” (Bioorg Med Chem Lett, 2010).

Assays:
[1] = target: T1, Amine oxidase [flavin-containing] B (Rattus norvegicus, UniProt P19643); experiment: Inhibition of MAOB in rat brain mitochondria
T1 sequence (P19643 whole entry): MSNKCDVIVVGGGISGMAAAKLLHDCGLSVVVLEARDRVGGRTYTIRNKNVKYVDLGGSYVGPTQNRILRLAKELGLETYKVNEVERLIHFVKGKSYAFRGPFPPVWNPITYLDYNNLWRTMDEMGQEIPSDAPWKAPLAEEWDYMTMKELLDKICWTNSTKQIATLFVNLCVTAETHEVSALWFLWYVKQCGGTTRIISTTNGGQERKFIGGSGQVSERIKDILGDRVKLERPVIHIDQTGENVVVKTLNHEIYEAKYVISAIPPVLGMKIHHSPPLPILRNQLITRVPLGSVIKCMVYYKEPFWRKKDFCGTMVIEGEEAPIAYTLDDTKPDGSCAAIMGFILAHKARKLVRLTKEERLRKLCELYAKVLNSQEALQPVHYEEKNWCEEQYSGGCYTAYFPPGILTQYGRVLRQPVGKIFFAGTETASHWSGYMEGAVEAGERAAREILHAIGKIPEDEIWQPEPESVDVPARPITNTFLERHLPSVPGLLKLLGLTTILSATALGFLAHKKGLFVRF

[2] = target: T2, Amine oxidase [flavin-containing] A (Rattus norvegicus, UniProt P21396); experiment: Inhibition of MAOA in rat brain mitochondria
T2 sequence (P21396 whole entry): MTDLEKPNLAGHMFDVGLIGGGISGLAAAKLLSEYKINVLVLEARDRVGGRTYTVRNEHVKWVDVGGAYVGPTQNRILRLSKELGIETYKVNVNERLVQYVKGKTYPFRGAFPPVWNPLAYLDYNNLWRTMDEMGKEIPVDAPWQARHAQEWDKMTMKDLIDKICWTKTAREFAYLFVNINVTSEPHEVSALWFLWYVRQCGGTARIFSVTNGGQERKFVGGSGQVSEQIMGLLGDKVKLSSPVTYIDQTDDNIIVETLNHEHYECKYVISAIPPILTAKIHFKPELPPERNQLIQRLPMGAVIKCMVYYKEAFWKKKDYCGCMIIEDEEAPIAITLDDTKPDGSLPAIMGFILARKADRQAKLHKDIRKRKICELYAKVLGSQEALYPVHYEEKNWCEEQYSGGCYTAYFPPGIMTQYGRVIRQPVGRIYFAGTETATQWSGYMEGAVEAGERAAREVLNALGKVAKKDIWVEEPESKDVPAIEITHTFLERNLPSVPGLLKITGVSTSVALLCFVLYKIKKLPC

[3] = target: T3, Amine oxidase [flavin-containing] B (Mus musculus, UniProt Q8BW75); experiment: Inhibition of mouse brain MAOB
T3 sequence (Q8BW75 whole entry): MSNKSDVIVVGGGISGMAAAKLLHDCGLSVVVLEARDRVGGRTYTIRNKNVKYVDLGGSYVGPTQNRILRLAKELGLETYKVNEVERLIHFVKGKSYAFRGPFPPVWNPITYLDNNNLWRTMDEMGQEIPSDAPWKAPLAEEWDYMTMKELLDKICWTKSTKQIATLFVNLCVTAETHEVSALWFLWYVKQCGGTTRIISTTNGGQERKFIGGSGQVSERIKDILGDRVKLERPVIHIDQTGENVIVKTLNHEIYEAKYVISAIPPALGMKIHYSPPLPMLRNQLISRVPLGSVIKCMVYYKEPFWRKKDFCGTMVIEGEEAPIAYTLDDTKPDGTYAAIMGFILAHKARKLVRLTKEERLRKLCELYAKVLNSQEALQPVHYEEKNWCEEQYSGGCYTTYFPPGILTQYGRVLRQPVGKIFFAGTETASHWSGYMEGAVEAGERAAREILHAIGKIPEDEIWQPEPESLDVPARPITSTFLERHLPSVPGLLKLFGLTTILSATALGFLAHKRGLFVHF

[4] = target: T4, Amine oxidase [flavin-containing] A (Mus musculus, UniProt Q64133); experiment: Inhibition of mouse brain MAOA
T4 sequence (Q64133 whole entry): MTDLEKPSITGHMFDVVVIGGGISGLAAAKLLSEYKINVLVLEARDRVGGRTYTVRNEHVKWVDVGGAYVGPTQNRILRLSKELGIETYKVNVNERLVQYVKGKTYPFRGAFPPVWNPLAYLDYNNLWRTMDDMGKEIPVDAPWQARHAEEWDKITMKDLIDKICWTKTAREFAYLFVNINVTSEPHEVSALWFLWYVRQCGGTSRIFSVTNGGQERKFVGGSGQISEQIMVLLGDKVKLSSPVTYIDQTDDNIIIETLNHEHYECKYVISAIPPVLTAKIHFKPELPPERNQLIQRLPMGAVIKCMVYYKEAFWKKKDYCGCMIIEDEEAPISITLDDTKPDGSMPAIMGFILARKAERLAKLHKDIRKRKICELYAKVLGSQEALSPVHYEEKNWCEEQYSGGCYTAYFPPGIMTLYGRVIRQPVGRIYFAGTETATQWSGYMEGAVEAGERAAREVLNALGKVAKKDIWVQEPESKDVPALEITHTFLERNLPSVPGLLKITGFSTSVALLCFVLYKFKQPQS

Ki [1] [µM]	Ki [2] [µM]	Ki [3] [µM]	Ki [4] [µM]	Compound
91.3	49.3	3.19	19	O=C(/C=C/C=C/c1ccc2c(c1)OCO2)N1CCCCC1 [PIPERINE]
		1.6	27.1	COC(=O)/C=C/C=C/c1ccc2c(c1)OCO2 [METHYL PIPERATE]
